Patent US11440913B2, “Aminoimidazopyridazines as kinase inhibitors” (BRISTOL-MYERS SQUIBB COMPANY, priority 2017, dated 2022)
pIC50: −log10 of the molar value. Structures can show the parent of a compound that is named as a salt. Where two headings read alike, the source gives them in different places.

Assays:
[1] = biological target: His-GST-TVMV-hRIPK1(1-324) (Homo sapiens (Human), UniProt Q13546); experiment: RIPK1 HTRF Binding Assay; conditions: HTRF binding, 1 h at rt; read-out: RIPK1 (IC50)
Summary of the method: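 HTRF probe-displacement binding: 1 nM His-GST-TVMV-hRIPK1(1-324) (baculovirus construct), 90.6 nM probe, 0.2 nM anti-GST-Tb in 20 mM HEPES, 10 mM MgCl2, 0.015% Brij-35, 4 mM DTT, 0.05 mg/mL BSA. Incubated 1 h at rt; FRET 520/495 nm ratio, inhibition relative to DMSO-only wells.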

[2] = test system: MLKL phosphorylation in HT29-L23 human colorectal adenocarcinoma cells; experiment: MLKL Phosphorylation High-Content Assay; assay type: cell-based; conditions: necroptosis induced with TNFα, SMAC mimetic and Z-VAD, 6 h, read-out: pMLKL (IC50)
Summary of the method: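 HT29-L23 cells pretreated 30 min at 37 °C with compound (6.25 to 0.106 μM final), then necroptosis induced with TNFα 35 ng/mL, SMAC mimetic 700 nM and Z-VAD 140 nM for 6 h. Fixed cells immunostained for MLKL pS358 and imaged; IC50 and Ymax from 4-parameter logistic fit.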

Sequence of His-GST-TVMV-hRIPK1(1-324) (Q13546 1-324): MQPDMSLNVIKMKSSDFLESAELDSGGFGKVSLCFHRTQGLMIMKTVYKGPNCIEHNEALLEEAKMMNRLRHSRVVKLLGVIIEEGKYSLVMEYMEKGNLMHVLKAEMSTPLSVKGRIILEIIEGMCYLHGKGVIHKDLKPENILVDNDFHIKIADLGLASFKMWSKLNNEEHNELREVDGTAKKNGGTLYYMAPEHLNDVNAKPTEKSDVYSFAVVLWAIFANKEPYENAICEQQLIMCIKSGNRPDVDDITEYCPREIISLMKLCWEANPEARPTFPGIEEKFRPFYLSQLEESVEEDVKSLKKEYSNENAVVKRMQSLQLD

Structure (SMILES)	pIC50 [1]	pIC50 [2]	pIC50 ([2]; Homo sapiens)
CC(=O)Nc1cn2nc(-c3cc(C(=O)NCCC(C)c4ccccc4)cnc3C)ccc2n1 (stereo not drawn) [Example 231, 5-{2-acetamidoimidazo[1,2-b]pyridazin-6-yl}-6-methyl-N-(3-phenylbutyl)pyridine-3-carboxamide]	8.22	7.22	–
CC(=O)Nc1cn2nc(-c3cc(C(=O)NCc4cccc(F)c4OCC4CC4)cnc3C)ccc2n1 [Example 232, N-{[2-(cyclopropylmethoxy)-3-fluorophenyl]methyl}-5-{2-acetamidoimidazo[1,2-b]pyridazin-6-yl}-6-methylpyridine-3-carboxamide]	8.40	–	8.40
CC(=O)Nc1cn2nc(-c3cc(C(=O)NCc4ccccc4OC(F)(F)F)cnc3C)ccc2n1 [Example 233, 5-{2-acetamidoimidazo[1,2-b]pyridazin-6-yl}-6-methyl-N-{[2-(trifluoromethoxy)phenyl]methyl}pyridine-3-carboxamide]	7.42	–	6.56
CC(=O)Nc1cn2nc(-c3cc(C(=O)NCc4cc(OC(F)(F)F)ccc4F)cnc3C)ccc2n1 [Example 234, 5-{2-acetamidoimidazo[1,2-b]pyridazin-6-yl}-N-{[2-fluoro-5-(trifluoromethoxy)phenyl]methyl}-6-methylpyridine-3-carboxamide]	7.34	–	7.15
CC(=O)Nc1cn2nc(-c3cncc(C(=O)N[C@H](C)c4cc(OC(F)(F)F)ccc4F)c3)ccc2n1 [Example 235, 5-{2-acetamidoimidazo[1,2-b]pyridazin-6-yl}-N-[(1R)-1-[2-fluoro-5-(trifluoromethoxy)phenyl]ethyl]pyridine-3-carboxamide]	6.46	–	6.45
CC(=O)Nc1cn2nc(-c3cncc(C(=O)NCc4cc(OCC5CC5)ccc4F)c3)ccc2n1 [Example 236, N-{[5-(cyclopropylmethoxy)-2-fluorophenyl]methyl}-5-{2-acetamidoimidazo[1,2-b]pyridazin-6-yl}pyridine-3-carboxamide]	7.02	–	6.74
CC(=O)Nc1cn2nc(-c3cncc(C(=O)NCc4cc(OC(F)(F)F)ccc4F)c3)ccc2n1 [Example 237, 5-{2-acetamidoimidazo[1,2-b]pyridazin-6-yl}-N-{[2-fluoro-5-(trifluoromethoxy)phenyl]methyl} pyridine-3-carboxamide]	7.35	–	7.11
CC(=O)Nc1cn2nc(-c3cncc(C(=O)NCCC(C)c4ccccc4)c3)ccc2n1 (stereo not drawn) [Example 238, 5-{2-acetamidoimidazo[1,2-b]pyridazin-6-yl}-N-(3-phenylbutyl) pyridine-3-carboxamide]	7.39	–	6.45
CC(=O)Nc1cn2nc(-c3cncc(C(=O)NCc4ccccc4OCC4CC4)c3)ccc2n1 [Example 239, N-{[2-(cyclopropylmethoxy)phenyl]methyl}-5-{2-acetamidoimidazo [1,2-b]pyridazin-6-yl}pyridine-3-carboxamide]	7.89	–	6.80
CC(=O)Nc1cn2nc(-c3cncc(C(=O)NCc4c(F)cccc4OC4CCCC4)c3)ccc2n1 [Example 240, N-{[2-(cyclopentyloxy)-6-fluorophenyl]methyl}-5-{2-acetamidoimidazo[1,2-b]pyridazin-6-yl}pyridine-3-carboxamide]	8.30	–	8.10
CC(=O)Nc1cn2nc(-c3cncc(C(=O)NCc4ncccc4OC4CCCC4)c3)ccc2n1 [Example 241, N-{[3-(cyclopentyloxy)pyridin-2-yl]methyl}-5-{2-acetamidoimidazo [1,2-b]pyridazin-6-yl}pyridine-3-carboxamide]	7.46	–	6.56
CC(=O)Nc1cn2nc(-c3cncc(C(=O)NCc4cc(F)ccc4OC4CCCC4)c3)ccc2n1 [Example 242, N-{[2-(cyclopentyloxy)-5-fluorophenyl]methyl}-5-{2-acetamidoimidazo[1,2-b]pyridazin-6-yl}pyridine-3-carboxamide]	8.40	–	7.96
[2H]C([2H])(Oc1c(F)cc(F)cc1CNC(=O)c1cc(-c2ccc3nc(NC(=O)CC)cn3n2)cnc1OC)C1CC1 [Example 243, N-({2-[cyclopropyl(deutero)methoxy]-3,5-difluorophenyl}methyl)-2-methoxy-5-{2-propanamidoimidazo[1,2-b]pyridazin-6-yl}pyridine-3-carboxamide]	8.70	–	8.52
[2H]C([2H])(NC(=O)c1cc(-c2ccc3nc(NC(=O)CC)cn3n2)cnc1OC)c1cc(OC(F)(F)F)ccc1F [Example 244, N-{[2-fluoro-5-(trifluoromethoxy)phenyl](deutero)methyl}-2-methoxy-5-{2-propanamidoimidazo[1,2-b]pyridazin-6-yl}pyridine-3-carboxamide]	6.59	–	8.40
CCC(=O)Nc1cn2nc(-c3cnc(OC)c(C(=O)N[C@H](C)c4cc(OC(F)(F)F)ccc4F)c3)ccc2n1 [Example 245, N-[(1R)-1-[2-fluoro-5-(trifluoromethoxy)phenyl]ethyl]-2-methoxy-5-{2-propanamidoimidazo[1,2-b]pyridazin-6-yl}pyridine-3-carboxamide]	6.31	–	6.88
CCC(=O)Nc1cn2nc(-c3cnc(OC)c(C(=O)NCC[C@H](O)c4ccc(Cl)cc4)c3)ccc2n1 [Example 246, N-[(3S)-3-(4-chlorophenyl)-3-hydroxypropyl]-2-methoxy-5-{2-propanamidoimidazo[1,2-b]pyridazin-6-yl}pyridine-3-carboxamide]	7.04	–	6.98
CCC(=O)Nc1cn2nc(-c3cnc(OC)c(C(=O)NCc4cc(F)cc(F)c4OC4CCOCC4)c3)ccc2n1 [Example 247, N-{[3,5-difluoro-2-(oxan-4-yloxy)phenyl]methyl}-2-methoxy-5-{2-propanamidoimidazo[1,2-b]pyridazin-6-yl}pyridine-3-carboxamide]	8.70	–	8.70
CCC(=O)Nc1cn2nc(-c3cnc(OC)c(C(=O)NCc4ccccc4OC(F)(F)F)c3)ccc2n1 [Example 248, 2-methoxy-5-{2-propanamidoimidazo[1,2-b]pyridazin-6-yl}-N-{[2-(trifluoromethoxy)phenyl]methyl}pyridine-3-carboxamide, TFA]	7.89	–	7.26
CCC(=O)Nc1cn2nc(-c3cnc(OC)c(C(=O)NCc4ccc(F)c(F)c4OCC4CC4)c3)ccc2n1 [Example 249, N-{[2-(cyclopropylmethoxy)-3,4-difluorophenyl]methyl}-2-methoxy-5-{2-propanamidoimidazo[1,2-b]pyridazin-6-yl}pyridine-3-carboxamide]	7.54	–	6.88
CCC(=O)Nc1cn2nc(-c3cnc(OC)c(C(=O)NCc4cc(OCC5CC5)ccc4F)c3)ccc2n1 [Example 250, N-{[5-(cyclopropylmethoxy)-2-fluorophenyl]methyl}-2-methoxy-5-{2-propanamidoimidazo[1,2-b]pyridazin-6-yl}pyridine-3-carboxamide]	7.74	–	7.21
CC(=O)Nc1nc2ccc(-c3cnc(C)c(C(=O)NCc4cccc(OC(F)(F)F)c4)c3)nn2c1C [Example 251, 5-{2-acetamido-3-methylimidazo[1,2-b]pyridazin-6-yl}-2-methyl-N-{[3-(trifluoromethoxy)phenyl]methyl}pyridine-3-carboxamide]	7.28	–	6.52
